In patent US12297204B2, “5-(substitutedphenyl)-7-thioxo-7,8-dihydropyrimido[4,5-d]pyrimidine-2,4(1H,3H)-dione analogues as antibacterial agents” (KING FAISAL UNIVERSITY, priority 2023, dated 2025):
In brackets after ≈: the same amount, converted by molar mass.

Tests used:
[1] = tested on: P. aeruginosa; experiment: Antimicrobial activity MIC, P. aeruginosa; format: cell-based, Pseudomonas aeruginosa (MTCC 424)
[2] = tested on: S. aureus; experiment: Antimicrobial activity MIC, S. aureus; format: cell-based, Staphylococcus aureus (MTCC 9660)
[3] = tested on: C. albicans; experiment: Antimicrobial activity MIC, C. albicans; format: cell-based, Candida albicans
[4] = tested on: A. flavus; experiment: Antimicrobial activity MIC, A. flavus; format: cell-based, Aspergillus flavus
[5] = tested on: T. atroviridae; experiment: Antimicrobial activity MIC, T. atroviridae; format: cell-based, Trichoderma atroviride
[6] = tested on: B. subtilis; experiment: Antimicrobial activity MIC, B. subtilis; format: cell-based, Bacillus subtilis (MTCC 441)
[7] = tested on: P. citrinum; experiment: Antimicrobial activity MIC, P. citrinum; format: cell-based, Penicillium citrinum
[8] = tested on: E. coli; experiment: Antimicrobial activity MIC, E. coli; format: cell-based, Escherichia coli (MTCC 443)

Molecule | MIC ([1]; P. aeruginosa) [µM] | MIC ([2]; S. aureus) [µM] | MIC ([3]; C. albicans) [µM] | MIC ([4]; A. flavus) [µM] | MIC ([5]; T. atroviridae) [µM] | MIC ([6]; B. subtilis) [µM] | MIC ([7]; P. citrinum) [µM] | MIC ([8]; E. coli) [µM] | MIC ([1]; Pseudomonas aeruginosa) [µM] | MIC ([2]; Staphylococcus aureus) [µM] | MIC ([3]; Candida albicans) [µM] | MIC ([4]; Aspergillus flavus) [µM] | MIC ([5]; Trichoderma atroviride) [µM] | MIC ([6]; Bacillus subtilis) [µM] | MIC ([7]; Penicillium citrinum) [µM] | MIC ([8]; Escherichia coli) [µM]
5-(4-(Benzyloxy)phenyl)-7-thioxo-7,8-dihydropyrimido[4,5-d]pyrimidine-2,4(1H,3H)-dione [Compound 4b] | 0.17 | 0.34 | 0.005 | 0.01 | 0.01 | 0.17 | 0.01 | 0.17 | – | – | – | – | – | – | – | –
COc1ccc(-c2nc(=S)[nH]c3[nH]c(=O)[nH]c(=O)c23)cc1O [Compound 4c, 5-(3-Hydroxy-4-methoxyphenyl)-7-thioxo-7,8-dihydropyrimido[4,5-d]pyrimidine-2,4(1H,3H)-dione] | – | – | – | – | – | – | – | – | 0.2 (≈ 0.0637 µg/mL) | 0.4 (≈ 0.127 µg/mL) | 0.03 (≈ 0.00955 µg/mL) | 0.05 (≈ 0.0159 µg/mL) | 0.05 (≈ 0.0159 µg/mL) | 0.2 (≈ 0.0637 µg/mL) | 0.05 (≈ 0.0159 µg/mL) | 0.2 (≈ 0.0637 µg/mL)
COc1ccc(-c2nc(=S)[nH]c3c2c(=O)n(C)c(=O)n3C)cc1O [Compound 4d, 5-(3-Hydroxy-4-methoxyphenyl)-1,3-dimethyl-7-thioxo-7,8-dihydropyrimido[4,5-d]pyrimid-ine-2,4(1H,3H)-dione] | – | – | – | – | – | – | – | – | 0.012 (≈ 0.00416 µg/mL) | 0.012 (≈ 0.00416 µg/mL) | 0.18 (≈ 0.0623 µg/mL) | 0.37 (≈ 0.128 µg/mL) | 0.37 (≈ 0.128 µg/mL) | 0.006 (≈ 0.00208 µg/mL) | 0.37 (≈ 0.128 µg/mL) | 0.012 (≈ 0.00416 µg/mL)
O=c1[nH]c(=O)c2c(-c3cccc(OCc4ccccc4)c3)nc(=S)[nH]c2[nH]1 [Compound 4a, 5-(3-(Benzyloxy)phenyl)-7-thioxo-7,8-dihydropyrimido[4,5-d]pyrimidine-2,4(1H,3H)-dione] | – | – | – | – | – | – | – | – | 0.04 (≈ 0.0151 µg/mL) | 0.02 (≈ 0.00757 µg/mL) | 0.08 (≈ 0.0303 µg/mL) | 0.17 (≈ 0.0643 µg/mL) | 0.17 (≈ 0.0643 µg/mL) | 0.01 (≈ 0.00378 µg/mL) | 0.17 (≈ 0.0643 µg/mL) | 0.04 (≈ 0.0151 µg/mL)
